Test results as given in patent publication US20100160351A1, “PHARMACEUTICAL COMPOSITIONS AND METHODS FOR TREATING HYPERURICEMIA AND RELATED DISORDERS” (NUON THERAPEUTICS, INC., priority 2008, published 2010).

Key:
[1] = test system: monosodium urate (MSU) crystal-induced air pouch inflammation; assay: Air Pouch Model 3: MSU crystal air pouch, rodent model of gout; type: in vivo, male Sprague-Dawley rats; conditions: 30 min before MSU; for Average Exudate Volume, Mean / Average Plasma Extravasation, OD620 nm, Mean / Total WBC in Sample, Mean / WBC in exudate, Mean: 4 h after MSU
Procedure: (§1) The objective of this study was to evaluate the anti-inflammatory potency of Tranilast. This evaluation was carried out in male Sprague-Dawley rats in a rodent model of gout. The animals were injected subcutaneously with 20 ml of sterile air, followed three days later by a supplemental injection with 20 ml of sterile air. Six days after the initial sterile air injection, the rats were injected intravenously with Evan's Blue and pretreated for thirty minutes with oral administration of 25 mg/kg, 50 mg/kg, 100 mg/kg, 200 mg/kg, or 300 mg/kg tranilast. After the pretreatment period, the rats were injected with 150 mg of monosodium urate (MSU) crystals (10 mg/ml) into the air pouch. Four hours later, the air pouch was injected with 5 ml heparinized saline and the entire contents of the air pouch removed, recording the total volume. The air pouch contents were evaluated for plasma extravasation and total white blood cell (WBC) count.
(§2) On day 0 the rats were anesthetized in a biological cabinet, the nape of the neck was cleansed with 70% isopropanol followed by iodine tincture (VEDCO). Twenty ml sterile (0.22 μm, Millipore, Cat. SLGSV255F) air was injected subcutaneously using a 23 G×2 inch needle fixed to a 20 ml syringe. The rats were returned to routine housing. No adverse reactions were observed.
(§3) On day 3 the rats were anesthetized in a biological cabinet, the nape of the neck was cleansed with 70% isopropanol followed by iodine tincture (VEDCO). Twenty ml sterile (0.22 μm, Fisher Scientific, Cat. 09-720-3) air was injected subcutaneously using a 23 G×2 inch needle fixed to a 20 ml syringe. The rats were returned to routine housing. No adverse reactions were observed.
On day 6 the rats were weighed (Mettler, Model PE3000, SN: F69474) and injected intravenously injected with 2 ml/kg Evans Blue. The animals were dosed orally with 0.5 ml/kg, 1 ml/kg, 2 ml/kg, 4 ml/kg tranilast, or 6 ml/kg tranilast or 6 ml/kg vehicle.
(§4) Thirty minutes after test material administration, the rats were anesthetized and six groups (2-7) were injected into the air pouch with 15 ml MSU using a 19 G×2 inch needle fitted to a 20 ml syringe. Group 1 was injected with 15 ml saline. The rats were returned to their cages, no adverse affects were observed.
(§5) Four hours after MSU/saline injection, the rats were anesthetized and 5 ml 10 U/ml heparinized saline was injected into the air pouch. The air pouch was gently massaged, the contents immediately removed using a 14 G×1 inch needle fitted to a 6 ml syringe, and the exudate volume recorded. An aliquot of the exudate was transferred to heparin-treated microtainer tubes (Becton Dickinson, Cat. 365958) for white blood cell (WBC) counting. The remainder of the exudate was centrifuged (Hermle Labrotechnik, Model Z200A, SN: 44060036), the supernatants removed and evaluated at OD620nm (Spectronic Unicam, Model 4000 1/4, SN: 3SGD003006) for plasma extravasation.

[2] = test system: monosodium urate (MSU) crystal-induced air pouch inflammation; assay: Air Pouch Model 4: MSU crystal air pouch, rodent model of gout; type: in vivo, male Sprague-Dawley rats; conditions: 30 min before MSU; for Average Exudate Volume, Mean / Average Plasma Extravasation, OD620 nm, Mean / Total WBC in Sample, Mean / WBC in exudate, Mean: 4 h after MSU
Procedure: as §1, with “of 3” for “of 25”, “mg/kg, 10 mg/kg, 30” for “mg/kg, 50”, “100” for “100 mg/kg, 200”
as §2, §3
On day 6 the rats were weighed (Mettler, Model PE3000, SN: F69474) and injected intravenously injected with 2 ml/kg Evans Blue. The animals were dosed orally with 0.06 ml/kg, 0.2 ml/kg, 0.6 ml/kg, 2 ml/kg, or 6 ml/kg tranilast or 6 ml/kg vehicle.
as §4, §5

COc1ccc(/C=C/C(=O)Nc2ccccc2C(=O)O)cc1OC [Tranilast, 2-[[3-(3,4-dimethoxyphenyl)-1-oxo-2-propenyl]amino]benzoic acid]
Average Exudate Volume, Mean ([1]; 25 mg/kg oral): 6.9 mL | Average Plasma Extravasation, OD620 nm, Mean ([1]; 25 mg/kg oral): 1.181 | Total WBC in Sample, Mean ([1]; 25 mg/kg oral): 204170000 | WBC in exudate, Mean ([1]; 25 mg/kg oral): 31260000 cells/ml | Average Exudate Volume, Mean ([1]; 50 mg/kg oral): 4.8 mL | Average Plasma Extravasation, OD620 nm, Mean ([1]; 50 mg/kg oral): 1.071 | Total WBC in Sample, Mean ([1]; 50 mg/kg oral): 96948000 | WBC in exudate, Mean ([1]; 50 mg/kg oral): 18900000 cells/ml | Average Exudate Volume, Mean ([1]; 100 mg/kg oral): 6.4 mL | Average Plasma Extravasation, OD620 nm, Mean ([1]; 100 mg/kg oral): 1.276 | Total WBC in Sample, Mean ([1]; 100 mg/kg oral): 145408000 | WBC in exudate, Mean ([1]; 100 mg/kg oral): 27440000 cells/ml | Average Exudate Volume, Mean ([1]; 200 mg/kg oral): 6.2 mL | Average Plasma Extravasation, OD620 nm, Mean ([1]; 200 mg/kg oral): 1.033 | Total WBC in Sample, Mean ([1]; 200 mg/kg oral): 71692000 | WBC in exudate, Mean ([1]; 200 mg/kg oral): 12000000 cells/ml | Average Exudate Volume, Mean ([1]; 300 mg/kg oral): 5.6 mL | Average Plasma Extravasation, OD620 nm, Mean ([1]; 300 mg/kg oral): 0.611 | Total WBC in Sample, Mean ([1]; 300 mg/kg oral): 29232000 | WBC in exudate, Mean ([1]; 300 mg/kg oral): 5880000 cells/ml | inhibition of plasma extravasation ([1]; highest dose 300 mg/kg oral): 65% | inhibition of white blood cell infiltration ([1]; highest dose 300 mg/kg oral): 90% | effect on MSU-induced parameters (plasma extravasation, leukocyte infiltration) ([1]; oral 25-300 mg/kg): dose-dependent inhibition | Average Exudate Volume, Mean ([2]; 3 mg/kg oral): 9.6 mL | Average Plasma Extravasation, OD620 nm, Mean ([2]; 3 mg/kg oral): 1.940 | Total WBC in Sample, Mean ([2]; 3 mg/kg oral): 368228000 | WBC in exudate, Mean ([2]; 3 mg/kg oral): 38510000 cells/ml | Average Exudate Volume, Mean ([2]; 10 mg/kg oral): 7.7 mL | Average Plasma Extravasation, OD620 nm, Mean ([2]; 10 mg/kg oral): 1.662 | Total WBC in Sample, Mean ([2]; 10 mg/kg oral): 471436000 | WBC in exudate, Mean ([2]; 10 mg/kg oral): 61200000 cells/ml | Average Exudate Volume, Mean ([2]; 30 mg/kg oral): 7.1 mL | Average Plasma Extravasation, OD620 nm, Mean ([2]; 30 mg/kg oral): 1.089 | Total WBC in Sample, Mean ([2]; 30 mg/kg oral): 286935000 | WBC in exudate, Mean ([2]; 30 mg/kg oral): 39650000 cells/ml | Average Exudate Volume, Mean ([2]; 100 mg/kg oral): 5.1 mL | Average Plasma Extravasation, OD620 nm, Mean ([2]; 100 mg/kg oral): 1.180 | Total WBC in Sample, Mean ([2]; 100 mg/kg oral): 159916000 | WBC in exudate, Mean ([2]; 100 mg/kg oral): 31740000 cells/ml | Average Exudate Volume, Mean ([2]; 300 mg/kg oral): 3.9 mL | Average Plasma Extravasation, OD620 nm, Mean ([2]; 300 mg/kg oral): 0.613 | Total WBC in Sample, Mean ([2]; 300 mg/kg oral): 77451111 | WBC in exudate, Mean ([2]; 300 mg/kg oral): 19466667 cells/ml | inhibition of plasma extravasation ([2]; highest dose 300 mg/kg oral): 67% | inhibition of white blood cell infiltration ([2]; highest dose 300 mg/kg oral): 80% | effect on MSU-induced parameters (plasma extravasation, leukocyte infiltration) ([2]; oral 3-300 mg/kg): dose-dependent inhibition
